Key:
[1] = tested on: CD11b upregulation on the surface of neutrophils; experiment: Human CD11b potency assay (flow cytometric assay) with HS patient plasma or rhC5a-spiked human plasma; type: cell-based
Source text: Accumulation of neutrophils at the site of inflammation is dependent on the expression of adhesion molecules, including CD11b (also known as integrin alpha M) (Larson and Springer, 1990; Carlos and Harlan, 1990). Upregulation and mobilizing of CD11b/CD18 from intracellular pools to the surface of neutrophils is essential for the rolling action and migration of human neutrophils (Smith et al., 1989). Enhanced expression of CD11b/CD18 therefore reflects an inflammatory triggering event. The human CD11b assay is conducted using flow cytometry to detect FITC-conjugated anti-CD11b antibody on the surface of neutrophils. Activated complement products, especially elevated endogenous C5a (eC5a) in HS patient plasma samples can strongly upregulate CD11b expression through the binding of C5a to its receptor C5aR (CD88) on neutrophils. Consequently, blockade of the C5a-C5aR axis is expected to abolish or attenuate CD11b upregulation on the surface of neutrophils.
Two patient plasma samples Pat. 088 and Pat. 092 (5 μL) were incubated with fresh human blood (60 μL, as source of neutrophils) in the absence or presence of C5a-C5aR axis blockers (anti-C5a antibody IFX-1, anti-C5aR antibodies clone S5/1 and clone 7H110, C5aR antagonist PMX-53, and C5aR inhibitor Avacopan; 10 μL) in a total volume of 100 μL. Two control plasma samples (Ctrl 009 and Ctrl 010, 5 μL) prepared according to the procedure applied to the patient samples served as controls for unspecific activation. Blood with only saline (40 μL) or normal human plasma pool (huPP 5 μL+saline 35 μL) served as the non-stimulated control to define the baseline expression of CD11b. Blood sample with normal human plasma pool and spiked with recombinant human C5a (rhC5a) mimicked the stimulated condition. All samples were incubated at 37° C. for 20 min to activate CD11b upregulation. After cooling on ice, 2 μL of FITC-conjugated anti-mouse CD11b antibody was added to the samples. The labeled samples were kept on ice in the dark for another 30-min to minimize the background signal. Red blood cells were then lysed with 1×FACS Lysing solution at room temperature for 10 min. 2 mL Staining buffer was used to wash the remaining cells twice. After centrifugation at 2500 rpm for 3 min, cells were resuspended in 0.5 mL Staining buffer and ready for FACS analysis. A gate was set on the FSC vs. SSC plot to allow analysis only of cells with the size of neutrophils.
The percentage of blocking activity (BA) of the C5a-C5aR axis blockade test material was calculated using the formula below. Where MFI is the mean fluorescence intensity emitted from the CD11b-bound FITC on neutrophils. BA (%)=(MFIPatient plasma−MFITest material spiked patient plasma)÷(MFIPatient plasma−MFIhuPP)×100 b) Statistical Analysis

[2] = tested on: recombinant human C5a (rhC5a)-induced CD11b upregulation on blood neutrophils; experiment: CD11b assay in human whole blood stimulated with rhC5a; type: cell-based
Protocol: Human whole blood was stimulated with rhC5a or ZAP. To test the blocking activity of IFX-1 and irrelative control IgG4 on rhC5a, the antibodies were diluted to final Ab/Ag molar ratios of 1:1 and 0.5:1. To test the blocking activity of IFX-1 on eC5a, IFX-1 was diluted to reach final Ab/Ag molar ratios of approximately 4:1/3:1/2:1/1:1/0.5:1. Blood only with buffer served as a non-stimulation control to assess the baseline CD11b expression. Blood with antibody alone was used to determine the effects on CD11b expression of the antibody under non-stimulated condition. The complete mixture (Ab/Ag/blood) was incubated at 37° C. for 20 min to evaluate C5a-induced up-regulation of CD11b. After addition of anti-mouse CD11b:FITC samples were incubated for 30 min on ice to minimize background staining. Granulocytes were gated and mean fluorescence intensity (MFI) of FITC labeled (CD11b expressing) granulocytes was examined by flow cytometer.
Human blood was stimulated with rhC5a or zymosan A, and the complete mixture (Ab/Ag/blood) was incubated at 37° C. for 20 min to stimulate the C5a-induced up-regulation of CD11b. […] After lysis, cells were analyzed using flow cytometer. On the FSC/SSC dot-plot, granulocytes were gated and mean fluorescence intensity (MFI) of FITC labeled (CD11b expressing) granulocytes was examined for the whole sample set. […]

[3] = tested on: zymosan-induced generation of IL-8 in human whole blood; experiment: Cytokine IL-8 ELISA after zymosan A stimulation of human whole blood; type: cell-based; conditions: various concentrations of zymosan A, FIG. 4
Protocol: Human IL-8 ELISA was performed as recommended in the instruction manual under section “Assay procedure” (eBioscience Inc., San Diego, CA). Briefly, coating was performed overnight at 4° C. using 100 μl 1× capture antibody. Plates were blocked using 200 μl 1× assay diluents at RT for 1 h. Standard stock solutions were diluted with 1× assay diluents to the desired concentration, followed by 6 serial 1:2 dilutions. Sample supernatants were diluted as required in 1× assay diluents. According to the “Assay procedure”, 100 μl of standard dilutions and sample dilutions were added to the coated plate and incubated at RT for 1 h, followed by the incubation with 100 μl 1× detection antibody (RT, 1 h) and 100 μl 1× avidin-HRP (RT, 30 min). Color development was performed with 100 μl TMB substrate solution at RT for 10 min in the dark and was terminated with 100 μl stop solution. Absorbance was read out within 30 min using the plate reader at 450 nm. Zero standard value (blank) was subtracted from all standards and samples. Cytokine concentration of samples was calculated using a log(x)/log(y) standard curve of included standard samples.
In the same experimental set-up, IL-8 levels were measured and used to assess the inflammatory response. IL-8 concentrations after various doses of zymosan A stimulation ranged from 458 pg/ml to 3218 pg/ml in the absence of IFX-1. […]

[4] = tested on: HS plasma-induced CD11b upregulation on blood neutrophils; experiment: CD11b upregulation on blood neutrophils induced by HS plasma (human whole blood model); type: cell-based; conditions: HS plasma samples Pat. 088 and Pat. 092, FIG. 6
Source text: To determine the role of C5a in the HS plasma sample on the neutrophil activation, the HS plasma samples with high levels of C5a were chosen and assessed by employing the human whole blood model. […] Recombinant human C5a was used as the positive control, while the plasma from healthy volunteers was chosen as the negative control. […] From these novel results the inventors concluded that blockade of C5a in HS patients is sufficient to achieve a strong suppression on neutrophil activation.

[5] = tested on: cynomolgus monkey; experiment: Nonclinical tests and studies including GLP toxicology studies in cynomolgus monkey; conditions: in vitro/ex vivo tests and in vivo studies incl. GLP toxicology in cynomolgus monkey
[6] = target: T1, human C5a (Homo sapiens, UniProt P01031); experiment: In vitro blocking of C5a-induced biological effects; type: cell-based; conditions: experimental in vitro settings
T1 sequence (P01031 678-751 limits assumed): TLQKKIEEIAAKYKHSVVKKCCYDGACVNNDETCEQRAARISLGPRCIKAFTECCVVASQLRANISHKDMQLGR

[7] = tested on: patients with moderate to severe hidradenitis suppurativa
Protocol: Primary objective of the trial was to explore the safety and tolerability of IFX-1 administered over 8 weeks. Secondary objectives of the trial were to assess the pharmacokinetics and pharmacodynamics of IFX-1 as well as to generate preliminary data on the efficacy of IFX-1 on clinical endpoints (e.g., HiSCR, DLQI, VAS for disease status, VAS for pain, HS-PGA, modified Sartorius Score) to generate further hypotheses. The enrolled patients were treated with 800 mg IFX-1 twice in the first week and once a week thereafter for the total 8-week treatment; i.e. IFX-1 was administered in nine intravenous doses of 800 mg IFX-1 on days 1, 4, 8, 15, 22, 29, 36, 43, and 50. All patients were followed up for 12 additional weeks.
• 1. Male or female patients ≥18 years old • 2. Written informed consent • 3. Diagnosis of HS for at least 1 year • 4. HS lesions in at least 2 distinct anatomic areas, one of which is Hurley Stage II or III • 5. Total AN (abscesses and nodules) count ≥3 • 6. Patients with either primary or secondary failure of biological treatment or are not eligible for treatment with other biologicals • NOTE: a primary failure is defined as an at least 12 week treatment with a biological compound without effect and a secondary failure as achieving an initial response after at least 12 week treatment with a biological compound followed by a relapse. • 7. […]

[8] = tested on: human; conditions: in vivo
[9] = HS patient plasma Pat. 088, test material 50 nM
[10] = HS patient plasma Pat. 088, test material 20 μM
[11] = HS patient plasma Pat. 092, test material 50 nM
[12] = HS patient plasma Pat. 092, test material 20 μM
[13] = HS patient plasma Pat. 088, test material 100 μM
[14] = HS patient plasma Pat. 088, test material 500 μM
[15] = HS patient plasma Pat. 092, test material 100 μM
[16] = HS patient plasma Pat. 092, test material 500 μM
[17] = HS patient plasma Pat. 088, test material 20 nM
[18] = HS patient plasma Pat. 092, test material 20 nM

Ac-Phe-cyclo(Orn-Pro-D-Cha-Trp-Arg) [PMX-53]
CD11b upregulation induced by HS patient plasma samples as well as by rhC5a ([1]; 20 μM, FIG. 9B): completely abrogated | Blocking activity (%) [1, 9]: 55.46% | CD11b (mean MFI) [1, 9]: 4728.5 | Blocking activity (%) [1, 10]: 104.48% | CD11b (mean MFI) [1, 10]: 2027.5 | Blocking activity (%) [1, 11]: 56.69% | CD11b (mean MFI) [1, 11]: 4657.5 | Blocking activity (%) [1, 12]: 108.59% | CD11b (mean MFI) [1, 12]: 1912.5 | CD11b (mean MFI) ([1]; huPP + rhC5a (20 nM), test material 50 nM): 4235.5 | CD11b (mean MFI) ([1]; huPP + rhC5a (20 nM), test material 20 μM): 1851 | CD11b (mean MFI) ([1]; huPP, non-stimulated, test material 50 nM): 2053.5 | CD11b (mean MFI) ([1]; huPP, non-stimulated, test material 20 μM): 2218.5 | Blocking activity (%) ([1]; rhC5a-spiked huPP (20 nM rhC5a), test material 50 nM): 50.30% | Blocking activity (%) ([1]; rhC5a-spiked huPP (20 nM rhC5a), test material 20 μM): 107.88%

Cc1ccc(NC(=O)[C@H]2CCCN(C(=O)c3c(C)cccc3F)[C@H]2c2ccc(NC3CCCC3)cc2)cc1C(F)(F)F [Avacopan, (2R,3S)-2-[4-(cyclopentylamino)phenyl]-1-(2-fluoro-6-methylbenzoyl)-N-[4-methyl-3-(trifluoromethyl)phenyl]piperidine-3-carboxamide]
CD11b upregulation induced by HS patient plasma ([1]; 500 μM, FIG. 11): completely blocked | Blocking activity (%) [1, 13]: 77.35% | CD11b (mean MFI) [1, 13]: 5289 | Blocking activity (%) [1, 14]: 104.57% | CD11b (mean MFI) [1, 14]: 3027 | Blocking activity (%) [1, 15]: 79.60% | CD11b (mean MFI) [1, 15]: 5000 | Blocking activity (%) [1, 16]: 104.17% | CD11b (mean MFI) [1, 16]: 3081.5

B1: IFX-1: chimeric monoclonal IgG4 antibody which specifically binds to the soluble human complement split product C5a (antibody, V domains shown)
VH: QVQLQQSGPQLVRPGTSVKISCKASGYSFTTFWMDWVKQRPGQGLEWIGRIDPSDSESRLDQRFKDRATLTVDKSSSTVYMQLSSPTSEDSAVYYCARGNDGYYGFAYWGQGTLVTVSS
VL: DIVLTQSPASLAVSLGQRATISCKASQSVDYDGDSYMKWYQQKPGQPPKLLIYAASNLQSGIPARFSGSGSGTDFTLNIHPVEEEDAATYYCQQSNEDPYTFGGGTKLEIK
blocking of rhC5a-stimulated CD11b up-regulation on human neutrophils ([2]; human whole blood, Ab/Ag molar ratios 1:1 and 0.5:1, FIG. 1): completely blocked | blocking of CD11b up-regulation stimulated by rhC5a ([2]; positive control of the zymosan A whole blood experiment, FIG. 3): 100% | reduction rate of IL-8 generation [3]: up to 54% | suppression of CD11b upregulation induced by HS plasma [4]: 100% | CD11b upregulation by rhC5a and HS patient plasma samples (Pat. 088 and Pat. 092) ([1]; 20 nM, FIG. 10): completely abolish | Blocking activity (%) [1, 17]: 101.74% | CD11b (mean MFI) [1, 17]: 2209 | Blocking activity (%) [1, 18]: 103.70% | CD11b (mean MFI) [1, 18]: 2147 | CD11b (mean MFI) ([1]; huPP + rhC5a (20 nM), test material 20 nM): 2067 | CD11b (mean MFI) ([1]; huPP, non-stimulated, test material 20 nM): 2352 | Blocking activity (%) ([1]; rhC5a-spiked huPP (20 nM rhC5a), test material 20 nM): 104.29% | toxicological or safety concerns in nonclinical tests and studies [5]: None of the conducted nonclinical tests and studies revealed any toxicological or safety concerns | efficiency of neutralizing the effects of 2 molecules C5a by one antibody [6]: ~100% | HiSCR responders ([7]; out of 11 patients treated up to Day 56, 800 mg i.v.): 8 patients | HiSCR response rate ([7]; treatment period of 8 weeks, Day 56, 95% confidence interval 43% to 91%): 72.7% | safety laboratory parameters, vital signs and ECG parameters [8]: no clinically relevant time or dose-related changes

From patent publication US11890349B2, “Treatment of inflammatory diseases with inhibitors of C5A activity” (InflaRx GmbH, priority 2017, dated 2024)
